In brackets after ≈: the same amount, converted by molar mass. Where two headings read alike, the source gives them in different places. Residues, ends and D or L forms follow the SMILES beside them.

One compound from publication PMC10525135, “Computationally Designed AMPs with Antibacterial and Antibiofilm Activity against MDR Acinetobacter baumannii” (Antibiotics, 2023) can be followed below.

Assay [1] has as its system A. baumannii AB5075 (MRSN959). It counts as cell-based, Acinetobacter baumannii. Here is the method: (§1) Minimum inhibitory concentration (n = 3) was performed according to the CLSI protocols with a minor modification, in which Difco Mueller Hinton broth (BD 275730, Franklin Lakes, NJ, USA) was used instead of cation-adjusted Mueller Hinton broth following Wiegand et al.’s standardized protocol for testing AMPs. Bacteria were grown overnight in an opaque colony, and the concentration was determined using McFarland’s technique. An aliquot of 50 µL of 1 × 10^6 CFU/mL of bacteria was incubated with a decreasing series of peptide concentration to achieve a final bacterial concentration of 5 × 10^5 CFU/mL at 37 °C 5% CO2 for 20–24 h in Difco Mueller Hinton broth. Dilutions were performed in a 96-well polypropylene plate (Corning 3879, Corning, NY, USA). This is critical to avoid peptide binding to the plate. Results were obtained by measuring bacterial growth at OD600 nm. LL-37 and polymyxin B were used as positive controls. Samples containing only the medium and medium with peptides were used as the sterility controls and samples containing only bacteria in MHB served as the growth control. Each experiment was performed twice, and one representative experiment is shown.

Assay [2] relates to A. baumannii strains AB5075, BAA-1710, -1794, and -1800. Format: cell-based, Acinetobacter baumannii. Conditions: summary over MDR A. baumannii strains of Table 3. Here is the method: as §1
Another assay relates to A. baumannii BAA-1710. It counts as cell-based, Acinetobacter baumannii. Conditions: A. baumannii BAA-1710; Difco Mueller Hinton broth, 5 × 10^5 CFU/mL, 37 °C 5% CO2, 20–24 h, OD600, n = 3. Here is the method: as §1
For a further assay, the system named is AB5075. In words: Membrane depolarization assay (DiSC3(5)). To be noted: 50 µg/mL, DiSC3(5) fluorescence, 20 min, versus untreated bacteria. It counts as cell-based, Acinetobacter baumannii. The method, then:
A membrane depolarization assay was performed using a cationic dye, 3,3′-dipropylthiadicarbocyanine iodide (DiSC3(5)) as we previously described, with some modifications. Briefly, AB5075 was grown overnight on a Tryptic Soy agar, and opaque colonies were emulsified in DPBS (Gibco) until the 0.5 McFarland standard was achieved (~1 × 10^8 CFU/mL). A bacterial suspension of 4 × 10^7 CFU/mL was prepared and washed twice with DPBS, and then bacteria were resuspended in DPBS containing 10 µg/mL of DiSC3(5). An aliquot of 100 µL of the bacteria DiSC3(5) suspension was added to a black 96-well flat plate (Ultracruz Polypropylene Microplate sc-204462, Santacruz, CA, USA). The plate was incubated at room temperature in BioTek Cytation 5 and monitored until fluorescence stopped decreasing. An aliquot of 100 µL of peptide or DPBS (the untreated control) was added to each well (a final concentration of peptide of 50 µg/mL) and the plate was immediately returned to the plate reader. […] Readings were taken every 15 s for 20 min (excitation = 622 nm; emission = 670 nm). The experiment was repeated twice.

Assay [3] deals with AB5075 pre-formed (24 h) biofilm. Format: cell-based, Acinetobacter baumannii. The method, then: The MBEC assay measures the lowest concentration of an antimicrobial agent that can eradicate established biofilms. Using the MBEC assay in the Biofilm Inoculator 96-well base (Innovotech Cat #1911, Edmonton, AB, Canada) and following the manufacturer’s protocol, 150 µL (n = 6) of 1 × 10^6 CFU/mL of AB5075 in TSB was incubated for 24 h at 37 °C at 110 rpm for biofilm formation. The lid containing pegs was rinsed with sterile PBS for 5 min, and then the lid was placed in a peptide challenge polypropylene 96-well plate containing a decreasing series of drug concentrations and incubated for 24 h at 37 °C at 110 rpm. Pegs were washed three times with tap water, heat-fixed for 70 °C for 1 h, and stained with 0.1% crystal violet for 15 min. Excess stain was rinsed off with tap water and allowed to dry. Stained pegs were resolubilized with 200 µL of 33% glacial acetic acid. OD590 was obtained to measure the remaining biofilm. Pegs with only bacteria served as the growth control and 100% biofilm control. Media alone and media with a peptide/drug served as the sterility controls. […] The experiment was performed twice.

The test system of assay [4] is A. baumannii BAA-1710 and -1794 biofilm. Kind of assay: Antibiofilm screening at 100 µg/mL (crystal violet). It counts as cell-based, Acinetobacter baumannii. To be noted: n = 3. Here is the method: As the first step, antibacterial screening (n = 3) was performed on MDR strains of A. baumannii listed in Table 5, with each peptide at a concentration of 100 μg/mL in MHB. […] Growth was measured spectrophotometrically at OD600 nm at 20–24 h, following the CLSI protocol for A. baumannii incubation for MIC [99]. Similarly, biofilm formation was first established for tested A. baumannii strains using our crystal violet-staining protocol described below. Then, antibiofilm screening (n = 3) of each peptide against biofilm formation of A. baumannii was determined at 100 μg/mL. Peptides that were active in this screen were then analyzed in more detail as described below. Positive controls were used, such as LL-37 and polymyxin B [18, 66, 67]. Samples containing only the medium were considered as the sterility control whereas samples containing only bacteria served as the growth control.
The MBIC assay measures the lowest concentration of a compound that inhibits the biofilm formation of an organism. […] After the incubation of bacteria with AMPs, OD600 nm was measured for approximate bacterial growth. […] After that, 200 µL of 33% glacial acetic acid was added to resolubilize the stain, and biofilm mass was measured by a spectrophotometric reading at OD590. […]

The test system of assay [5] is A. baumannii BAA-1800 biofilm. To be noted: A. baumannii BAA-1800, TSB, 24 h 37 °C. Here is the method:
The MBIC assay measures the lowest concentration of a compound that inhibits the biofilm formation of an organism. A series of decreasing peptide concentrations starting from 64 μg/mL to 0.25 μg/mL (100 µL) were incubated with 1 × 10^5 CFU of A. baumannii in 100 µL of Tryptic Soy broth (TSB) in a polystyrene 96-well plate (Falcon 353072, Corning, NY, USA) for 24 h at 37 °C to assess biofilm formation inhibition, as described previously with minor modifications. After the incubation of bacteria with AMPs, OD600 nm was measured for approximate bacterial growth. Media were carefully removed, and wells (n = 3) were rinsed with tap water. Plates were heat-fixed at 70 °C for 1 h, and 200 µL of 0.1% crystal violet diluted in deionized water were added to wells and allowed to incubate for 15 min. Excess stain was rinsed off with tap water, and the plates were air-dried. After that, 200 µL of 33% glacial acetic acid was added to resolubilize the stain, and biofilm mass was measured by a spectrophotometric reading at OD590. Bacteria alone (no treatment) served as the 100% biofilm control, and media alone and media with a peptide/drug were used as the sterility control and the 0% biofilm control.

What is called MIC is the smallest concentration in the dilution series that meets the test's criterion for growth inhibition. Read a high MIC as a less susceptible organism. For `CC[C@H](C)CCCCC(=O)N[C@@H](CCN)C(=O)N[C@H](C(=O)N[C@@H](CCN)C(=O)N[C@H]1CCNC(=O)[C@H]([C@@H](C)O)NC(=O)[C@H](CCN)NC(=O)[C@H](CCN)NC(=O)[C@H](CC(C)C)NC(=O)[C@@H](Cc2ccccc2)NC(=O)[C@H](CCN)NC1=O)[C@@H](C)O` [Polymyxin B] (HELM PEPTIDE1{[CC[C@H](C)CCCCC(=O)[*:2]].[Dab].T.[Dab].[Dab].[Dab].[dF].L.[Dab].[Dab].T}$PEPTIDE1,PEPTIDE1,5:R3-11:R2$$$V2.0; N-terminus assumed; bridges inferred), the MIC was 0.25 to 0.5 µg/mL in assay [1] (A. baumannii AB5075 (MRSN959), Difco Mueller Hinton broth, 5 × 10^5 CFU/mL, 37 °C 5% CO2, 20–24 h, OD600, n = 3); 0.5 µg/mL (≈ 0.415 µM) in assay [1] (A. baumannii AB5075, experiment shown in Figure S2); 0.5 µg/mL (≈ 0.415 µM) in the assay on A. baumannii BAA-1710. Moreover, the “MIC across the tested strains” value in assay [2] was 0.25 to 0.5 µg/mL. In the assay with AB5075, the Membrane depolarization result is on record as “significant membrane depolarization effect”. Further, the “Concentration giving complete eradication of bacteria (reduction in CFU) in pre-formed biofilms” value in assay [3] (AB5075 pre-formed biofilm, CFU determination) was 2 µg/mL. Moreover, the MBEC result in assay [3] (MBEC100, AB5075 24 h pre-formed biofilm on pegs, 24 h challenge, crystal violet OD590, n = 6) is given as “* 2 µg/mL”. The “crystal violet-stained biofilm mass maintained” value in assay [3] (treated with between 2 and 16 µg/mL, AB5075 pre-formed biofilm) is “up to 40%”. Besides, in assay [4], the “Biofilm inhibition in screen” value is “complete biofilm inhibition”. Further, in assay [5] (crystal violet), the MBEC50 is given as 2 µg/mL. In assay [5] (polystyrene plate, crystal violet OD590, n = 3), this compound showed an MBIC100 of 1 µg/mL.
